As a reminder, the IC50 is the midpoint of a concentration-inhibition curve.

Molecules are shown by their SMILES. Where two headings read alike, the source gives them in different places.

For series [1], the system named is PC9 GR4 cells. The experiment in a line: Cell viability dose-response assay (CellTiter-Glo), IC50 calculation. The format is cell-based, human.
Series [2] has as its system lung cancer cells (PC9, PC9 GR4, H460, H358). The experiment in a line: Seahorse XF Analyzer Mito Stress Test (OCR: basal respiration, maximal respiration, ATP production). To be noted: for mitochondrial function (basal respiration, maximal respiration, ATP production; OCR): IC50 doses, 24 hours, PC9, PC9 GR4, H460, H358; for mitochondrial respiration in cells treated with ABL001 and simvastatin (MVA rescue and its reversal): PC9 GR4, added to ABL001 + simvastatin (inhibitors with MVA). The format is cell-based, human. The source says: (FIGS. 2A-2D) Seahorse XF Analyzer Mito Stress Test analysis of mitochondrial basal respiration, maximal respiration, and ATP production as measured by changes in oxygen consumption rate (OCR). […] (FIG. 2E) Mitochondrial basal respiration, maximal respiration, and ATP production as measured by Seahorse XF Analyzer's Mito Stress Test for PC9 cells harboring shRNAs against ABL1/ABL2 (shAA) and non-targeting control (shSCR). (FIGS. 2F-2G) Mitochondrial ROS (MitoROS) release as measured by FACS analysis of median fluorescent intensity (MFI) using Mitosox probe. […] Data are mean±SEM. […] Seahorse XF Analyzer Mito Stress Test analysis of mitochondrial basal respiration, maximal respiration, and ATP production as measured by changes in oxygen consumption rate (OCR) in the indicated lung cancer cells: (FIG. 8A) PC9; (FIG. 8B) PC9 GR4; (FIG. 8C) H460. […] Doses correspond to IC50 dose for each drug in the corresponding cell line. In each graph, for each of Basal Respiration, Maximal Respiration, and ATP production, data is shown from left to right for DMSO, GNF5, and Nilotinib. […] Cells were treated with IC50 doses for 24 hours (n=3). Data are mean±SEM. […] SEAHORSE MEASUREMENTS. Basal and maximal oxygen consumption rate and ATP production were measured using a Mito Stress test Kit and XF96 Extracellular Flux Analyzer (Seahorse Bioscience), according to manufacturer's instructions. Cells were plated in XF96 plates at 10,000 cells per well on Day 0. […] The plate was incubated in a non-CO2 incubator at 37° C. for 1 hr to equilibrate.

In the next series the test system is H358 cells. The experiment in a line: Cell viability dose-response assay (CellTiter-Glo), IC50 calculation. The format is cell-based, human.
Another series concerns PC9 BrM3 cells. The series is described as above. To be noted: read-out: Calculated IC50. The format is cell-based, human.
Another series relates to H460 cells. The series is described as above. The format is cell-based, human.
The conditions of series [3]: cited from earlier work.
The test system of series [4] is PC9, PC9 GR4 and H460 cells. The experiment in a line: MitoSOX staining, mitochondrial ROS by FACS. The format is cell-based, human. To be noted: EGFR mutant PC9 and PC9 GR4 cells, IC50 doses, 24 hours.
The subject of the next series is PC9 and H460 cells. The experiment in a line: MitoTracker staining, mitochondria number and morphology. To be noted: IC50 dose, 24 hours. The format is cell-based, human. How it is done:
(FIG. 9A) Mitochondrial basal respiration, maximal respiration, and ATP production as measured by changes in oxygen consumption rate (OCR) from Seahorse XF Analyzer Mito Stress Test analysis for H460 cells harboring shRNAs against ABL1/ABL2 (shAA) and non-targeting control (shSCR). (FIG. 9B) FACS analysis of mitochondrial ROS (MitoROS) using mitosox probe in H460 cells treated with 15 NM GNF5, 15 NM ABL001, and 0.5 nM Docetaxel for 24 hours. n=3 (FIGS. 9C-9D) MitoROS in H460 AA knockdown cells (FIG. 9C) or PC9 AA knockdown cells (FIG. 9D). (FIGS. 9E-9F) M[…] to analyze mitochondria number in H460 cells with 15 NM GNF5 (FIG. 9E) or PC9 cells treated with 10 NM GNF5 (FIG. 9F). n=3 (FIGS. 9G-9H) M[…] of H460 AA knockdown cells (FIG. 9G) or PC9 AA knockdown cells (FIG. 9H). n=3 Statistical analysis was calculated using unpaired two-tailed t test *p<0.05, Data are mean±SEM. (FIG. 9I) H460 cells stained with Mitotracker and Hoescht 33342 following treatment with IC50 dose for each drug for 24 hours. Image quantification showing mitochondrial length×width plotted for thousands of mitochondria from >10 cells across at least two independent experiments. Changes were not statistically significant.
M[…] . MitoTracker Red CMXRos was purchased from Thermofisher (cat. M7512). […] The samples were analyzed using flow cytometer BD FACS Canto II. […]

Series [5] relates to lung cancer cells (PC9, PC9 GR4, PC9 BrM3, H460, H358). The experiment in a line: 72 hr growth inhibition / cell viability assay with drug combinations and metabolite rescue. To be noted: for cell survival in the presence of statins: PC9-BrM3, sub-therapeutic doses, 72 hrs; for cell survival on co-treatment with ABL001: PC9 GR4, PC9 and H460 cells; for rescue of cell survival in cells co-treated with ABL001 and simvastatin: metabolite supplement, 72 hours, PC9 GR4, PC9, H460. The format is cell-based, human.

In series [6] the test system is PC9 cells. Description: cells. To be noted: Homo sapiens, PC-9, read-out: Calculated IC50.
For series [7], the system named is PC9 cells. To be noted: read-out: Calculated IC50, dose-response assay.
Series [8] deals with PC9 GR4 cells. The experiment in a line: Real-time quantitative PCR of BCL-2 family mRNAs. The format is cell-based, human. To be noted: PC9 GR4, metabolite supplement, 24 hours. Here is the method:
(FIG. 5E) Immunoblots of cytochrome c, cleaved PARP, β-catenin, GAPDH, and β-Tubulin. […] Cytoplasmic, membrane, and whole cell fractions are shown for drug treatments. […] Data are mean±SEM. REAL-TIME QUANTITATIVE PCR. RNA was isolated from subconfluent monolayers of cancer cells using the RNeasy RNA isolation kit (QIAGEN), and cDNA synthesis was performed using oligo(dT) primers and M-MLV reverse transcriptase (Invitrogen). RT-qPCR was performed in triplicate wells using iTaq Universal SYBR Green Supermix (Bio-Rad). Primers used in this study were purchased from Sigma Aldrich. Analysis of real-time data was collected using a Bio-Rad CFX384 machine and CFX Maestro software. Expression levels of each gene were normalized to GAPDH control housekeeping genes using the ddCT algorithm.

Series [9] has as its system lung cancer cells (PC9, PC9 GR4, PC9 BrM3, H460). The experiment in a line: Immunoblotting of apoptosis, prenylation and cytochrome c markers. The format is cell-based, human. To be noted: 24 hr. For orientation: Immunoblotting shows a protein as a band on a membrane.
[10] abbreviates: PC9 GR4, dose-response assay, read-out: Calculated IC50.
Setting [11] is: H460, dose-response assay, read-out: Calculated IC50.
Where [12] appears, read: Homo sapiens, PC9 GR4, dose-response assay, read-out: Calculated IC50.
The mark [13] stands for this setting: Homo sapiens, NCI-H358, H358, dose-response assay, read-out: Calculated IC50.
Setting [14] is: Homo sapiens, PC9 BrM3, dose-response assay.
The mark [15] stands for this setting: Homo sapiens, NCI-H460, H460, dose-response assay, read-out: Calculated IC50.

Regarding `O=C(Nc1ccc(OC(F)(F)Cl)cc1)c1cnc(N2CC[C@@H](O)C2)c(-c2ccn[nH]2)c1` [ABL001, Asciminib], the IC50 with PC9 GR4 cells [1] (Homo sapiens, PC9/GR4, read-out: Calculated IC50) was 7.5 µM; in the series on H358 cells (Homo sapiens, NCI-H358, read-out: Calculated IC50), 15 µM; in the series with PC9 BrM3 cells (Homo sapiens) it was 7.5 µM; in the series with H460 cells (Homo sapiens, NCI-H460, read-out: Calculated IC50), 15 µM; with PC9 cells [6], 7.5 µM. Further, the “mitochondrial function (basal respiration, maximal respiration, ATP production; OCR)” value (“mitochondrial function” for short) in series [2] was “greatly decreased”. The tolerability entry in series [3] (mouse, in vivo, po) is given as “well tolerated”. The body weight result in series [3] (oral gavage, mice) is given as “does not induce weight loss”. Besides, the “crossing of the BBB” value in series [3] (preclinical mouse models) was “shown to cross the BBB”. In addition, in series [4], the “mitochondrial reactive oxygen species (MitoROS) levels” value is reported as “increased”. For the same compound, the “mitochondrial morphology (length and width, network)” value in the series with PC9 and H460 cells is on record as “marginal, nonsignificant increase”. Moreover, the “cell survival in the presence of statins” value in [5] was “decreased cell survival”.
As for `CC(C)n1c(/C=C/C(O)CC(O)CC(=O)O)c(-c2ccc(F)cc2)c2ccccc21` (stereo not shown) [Fluvastatin], the IC50 in the series with PC9 GR4 cells [1] (setting [10]) was 2 µM; with PC9 cells [7] it was 2 µM; in the series on H358 cells (H358, dose-response assay, read-out: Calculated IC50), 4 µM; in the series with PC9 BrM3 cells (PC9 BrM3, dose-response assay), 2 µM; with H460 cells (setting [11]), 4 µM.
Regarding `COC(=O)[C@H](CCSC)NC(=O)c1ccc(NC[C@@H](N)CS)cc1-c1ccccc1` [FTI-277], the results for the half-maximal inhibitory concentration (IC50) in the series with PC9 GR4 cells [1] (setting [10]), in the series with PC9 cells [7] and with H460 cells (setting [11]) were 50 µM, 50 µM and 15 µM, respectively. Also, the “mitochondrial respiration in cells treated with ABL001 and simvastatin (MVA rescue and its reversal)” value (“mitochondrial respiration” below) in series [2] is on record as “minimal effect”. The “cell survival on co-treatment with ABL001” value in series [5] (72 hr) is “only slightly decreased”.
Turning to `COc1cc2ncnc(Nc3ccc(F)c(Cl)c3)c2cc1OCCCN1CCOCC1` [Gefitinib, gefitinib], in [2], the “mitochondrial function” value is “not impaired”. In addition, in series [5], the “cell survival in the presence of statins” value is “did not affect cell survival”.
As to `CC(=O)O[C@@]12CO[C@@H]1C[C@H](O)[C@@]1(C)C(=O)[C@H](O)C3=C(C)[C@@H](OC(=O)[C@H](O)[C@@H](NC(=O)OC(C)(C)C)c4ccccc4)C[C@@](O)([C@@H](OC(=O)c4ccccc4)[C@H]21)C3(C)C` [Docetaxel, docetaxel], the IC50 in the series on PC9 GR4 cells [1] (setting [12]) is 0.001 µM; in the series on H358 cells (setting [13]), 0.001 µM; with PC9 BrM3 cells (setting [14]) it was 0.001 µM; in the series on H460 cells (setting [15]), 0.0005 µM; in the series with PC9 cells [6], 0.001 µM. In addition, in series [2], the “mitochondrial function” value was “did not significantly impair”. Moreover, in [5], the “cell survival in the presence of statins” value is “did not affect cell survival”.
`COC(=O)[C@H](CC(C)C)NC(=O)c1ccc(NC[C@@H](N)CS)cc1-c1cccc2ccccc12` [GGTI-298]: the IC50 with PC9 GR4 cells [1] (setting [10]) was 20 µM; with PC9 cells [7], 20 µM; in the series on H460 cells (setting [11]), 15 µM. The “mitochondrial respiration” value in [2] was “negated the MVA rescue”. Further, the “cell survival on co-treatment with ABL001” value in series [5] (72 hr) was “significantly impaired”.
Take `C[C@@](O)(CCO)CC(=O)O` [MVA, mevalonate]: the “mitochondrial respiration” value in series [2] was “restored mitochondrial respiration back to baseline”. Also, the “rescue of cell survival in cells co-treated with ABL001 and simvastatin” value in series [5] was “could rescue cell survival”. In the series on PC9 GR4 cells [8], the “restoration of BCL-2 family gene expression in combination-treated cells” value was “restored gene expression back to baseline”. The “reversal of cytochrome c release” value in [9] (PC9 GR4, 500 μM MVA added to ABL001 and simvastatin) was “reversed”. Besides, the “prevention of PARP and caspase-3 cleavage in cells co-treated with ABL001 and simvastatin” value in [9] (metabolite supplement) is “prevented cleavage of PARP and caspase-3”.
Turning to `CC(C)=CCC/C(C)=C/CC/C(C)=C/CC/C(C)=C/COP(=O)(O)OP(=O)(O)O` [GGPP, geranylgeranyl diphosphate], the “rescue of cell survival in cells co-treated with ABL001 and simvastatin” value in series [5] is reported as “preferentially rescued cell viability”.
For `Cc1cn(-c2cc(NC(=O)c3ccc(C)c(Nc4nccc(-c5cccnc5)n4)c3)cc(C(F)(F)F)c2)cn1` [Nilotinib], the IC50 in the series with PC9 GR4 cells [1] (setting [12]), in the series with H460 cells (setting [15]) and in the series on PC9 cells [6] was 2 µM in each case. The “mitochondrial function” value in series [2] is listed as “inability of Nilotinib to inhibit mitochondria function”. For the same compound, in series [5] (PC9 GR4 and H460, sublethal doses, 72 hr), the “cell viability on co-treatment with simvastatin or fluvastatin” value is reported as “did not promote additive or synergistic decreases in cell viability”.
For `CCC(C)(C)C(=O)O[C@H]1C[C@@H](C)C=C2C=C[C@H](C)[C@H](CC[C@@H]3C[C@@H](O)CC(=O)O3)[C@H]21` [Simvastatin, simvastatin], the half-maximal inhibitory concentration (IC50) in the series on PC9 GR4 cells [1] (setting [12]) is 4 µM; in the series with H358 cells (setting [13]) it was 12 µM; with PC9 BrM3 cells (setting [14]) it was 4 µM; in the series with H460 cells (setting [15]) it was 12 µM; in the series with PC9 cells [6] it was 4 µM.

Values taken from patent US20240058335A1, “METHODS FOR TREATMENT OF CANCER USING ABL INHIBITORS AND DRUGS TARGETING THE MEVALONATE PATHWAY” (Duke University, priority 2021, published 2024).
